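Values below derive from 48-hour exposures of cells grown in 96-well plates, with endpoints linearly interpolated between the two concentrations bracketing the appropriate inhibition level. GI50: concentration for 50% inhibition of growth. Definition used: TGI = concentration required for complete inhibition of growth.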
Assays:
Experiment in all cases: NCI-60 cell line screen, 48 h
COLO 205 colon = system: COLO 205 colon
SN12C renal = system: SN12C renal
LOX IMVI melanoma = system: LOX IMVI melanoma
M14 melanoma = system: M14 melanoma
SW-620 colon = system: SW-620 colon
ACHN renal = system: ACHN renal
MDA-MB-468 breast = system: MDA-MB-468 breast
SK-MEL-5 melanoma = system: SK-MEL-5 melanoma
K-562 leukemia = system: K-562 leukemia
MCF7 breast = system: MCF7 breast
SK-MEL-28 melanoma = system: SK-MEL-28 melanoma
KM12 colon = system: KM12 colon
DU-145 prostate = system: DU-145 prostate
OVCAR-8 ovarian = system: OVCAR-8 ovarian
RPMI-8226 leukemia = system: RPMI-8226 leukemia
HL-60(TB) leukemia = system: HL-60(TB) leukemia
SR leukemia = system: SR leukemia
IGROV1 ovarian = system: IGROV1 ovarian
HOP-62 NSCLC = system: HOP-62 NSCLC
T-47D breast = system: T-47D breast
MDA-MB-435 = system: MDA-MB-435
EKVX NSCLC = system: EKVX NSCLC
OVCAR-5 ovarian = system: OVCAR-5 ovarian
NCI/ADR-RES ovarian = system: NCI/ADR-RES ovarian
UACC-62 melanoma = system: UACC-62 melanoma
OVCAR-4 ovarian = system: OVCAR-4 ovarian
UACC-257 melanoma = system: UACC-257 melanoma
SK-MEL-2 melanoma = system: SK-MEL-2 melanoma
HT29 colon = system: HT29 colon
MOLT-4 leukemia = system: MOLT-4 leukemia
MDA-MB-231 breast = system: MDA-MB-231 breast
U251 CNS = system: U251 CNS
SF-295 CNS = system: SF-295 CNS
HOP-92 NSCLC = system: HOP-92 NSCLC
SF-539 CNS = system: SF-539 CNS
MALME-3M melanoma = system: MALME-3M melanoma
NCI-H522 lung = system: NCI-H522 lung
NCI-H226 lung = system: NCI-H226 lung
OVCAR-3 ovarian = system: OVCAR-3 ovarian
RXF 393 renal = system: RXF 393 renal
HCT-15 colon = system: HCT-15 colon
PC-3 prostate = system: PC-3 prostate
BT-549 breast = system: BT-549 breast
A549 NSCLC = system: A549 NSCLC
NCI-H460 lung = system: NCI-H460 lung
CCRF-CEM leukemia = system: CCRF-CEM leukemia
786-0 renal = system: 786-0 renal
TK-10 renal = system: TK-10 renal
SNB-75 CNS = system: SNB-75 CNS
SF-268 CNS = system: SF-268 CNS
SNB-19 CNS = system: SNB-19 CNS
SK-OV-3 ovarian = system: SK-OV-3 ovarian
NCI-H23 lung = system: NCI-H23 lung
HCT-116 colon = system: HCT-116 colon
HCC-2998 colon = system: HCC-2998 colon
A498 renal = system: A498 renal
UO-31 renal = system: UO-31 renal
HS 578T breast = system: HS 578T breast

Cc1cc(C(NC(=O)C2CC3(CC(Nc4cccc5c4C(=O)N(C4CCC(=O)NC4=O)C5=O)C3)C2)c2ccc3c(c2)OC(F)(F)O3)c(O)c2ncccc12 (stereo not drawn)
GI50 (COLO 205 colon): 437 nM
TGI (COLO 205 colon): > 100 µM
GI50 (SN12C renal): 349 nM
TGI (SN12C renal): > 100 µM
GI50 (LOX IMVI melanoma): 272 nM
GI50 (M14 melanoma): 411 nM
TGI (M14 melanoma): 2660 nM
GI50 (SW-620 colon): 531 nM
TGI (SW-620 colon): > 100 µM
GI50 (ACHN renal): 359 nM
TGI (ACHN renal): > 100 µM
GI50 (MDA-MB-468 breast): 473 nM
TGI (MDA-MB-468 breast): 3.13 µM
GI50 (SK-MEL-5 melanoma): 226 nM
TGI (SK-MEL-5 melanoma): 562 nM
GI50 (K-562 leukemia): 334 nM
TGI (K-562 leukemia): > 100 µM
GI50 (MCF7 breast): 303 nM
TGI (MCF7 breast): > 100 µM
GI50 (SK-MEL-28 melanoma): 405 nM
TGI (SK-MEL-28 melanoma): > 100 µM
GI50 (KM12 colon): 468 nM
TGI (KM12 colon): > 100 µM
GI50 (DU-145 prostate): 461 nM
TGI (DU-145 prostate): > 100 µM
GI50 (OVCAR-8 ovarian): 364 nM
TGI (OVCAR-8 ovarian): > 100 µM
GI50 (RPMI-8226 leukemia): 350 nM
TGI (RPMI-8226 leukemia): > 100 µM
GI50 (HL-60(TB) leukemia): 314 nM
GI50 (SR leukemia): 340 nM
TGI (SR leukemia): > 100 µM
GI50 (IGROV1 ovarian): 313 nM
TGI (IGROV1 ovarian): > 32.3 µM
GI50 (HOP-62 NSCLC): 392 nM
TGI (HOP-62 NSCLC): > 100 µM
GI50 (T-47D breast): 393 nM
TGI (T-47D breast): > 100 µM
GI50 (MDA-MB-435): 426 nM
TGI (MDA-MB-435): > 100 µM
GI50 (EKVX NSCLC): 349 nM
TGI (EKVX NSCLC): > 40.6 µM
GI50 (OVCAR-5 ovarian): 447 nM
TGI (OVCAR-5 ovarian): > 100 µM
GI50 (NCI/ADR-RES ovarian): 1600 nM
TGI (NCI/ADR-RES ovarian): 15.3 µM
GI50 (UACC-62 melanoma): 282 nM
TGI (UACC-62 melanoma): 1140 nM
GI50 (OVCAR-4 ovarian): 476 nM
TGI (OVCAR-4 ovarian): > 100 µM
GI50 (UACC-257 melanoma): 718 nM
TGI (UACC-257 melanoma): > 100 µM
GI50 (SK-MEL-2 melanoma): 375 nM
TGI (SK-MEL-2 melanoma): > 100 µM
GI50 (HT29 colon): 474 nM
TGI (HT29 colon): > 100 µM
GI50 (MOLT-4 leukemia): 344 nM
TGI (MOLT-4 leukemia): > 100 µM
GI50 (MDA-MB-231 breast): 440 nM
TGI (MDA-MB-231 breast): > 42.7 µM
GI50 (U251 CNS): 210 nM
TGI (U251 CNS): > 100 µM
GI50 (SF-295 CNS): 275 nM
TGI (SF-295 CNS): > 100 µM
GI50 (HOP-92 NSCLC): 382 nM
TGI (HOP-92 NSCLC): > 100 µM
GI50 (SF-539 CNS): 378 nM
TGI (SF-539 CNS): 3.18 µM
GI50 (MALME-3M melanoma): 522 nM
TGI (MALME-3M melanoma): > 25.4 µM
GI50 (NCI-H522 lung): 399 nM
TGI (NCI-H522 lung): > 100 µM
GI50 (NCI-H226 lung): 434 nM
TGI (NCI-H226 lung): > 23.9 µM
GI50 (OVCAR-3 ovarian): 376 nM
TGI (OVCAR-3 ovarian): > 100 µM
GI50 (RXF 393 renal): 502 nM
TGI (RXF 393 renal): > 30.7 µM
GI50 (HCT-15 colon): 307 nM
TGI (HCT-15 colon): > 100 µM
GI50 (PC-3 prostate): 275 nM
TGI (PC-3 prostate): > 100 µM
GI50 (BT-549 breast): 224 nM
TGI (BT-549 breast): > 100 µM
GI50 (A549 NSCLC): 418 nM
TGI (A549 NSCLC): > 100 µM
GI50 (NCI-H460 lung): 198 nM
TGI (NCI-H460 lung): > 100 µM
GI50 (CCRF-CEM leukemia): 390 nM
TGI (CCRF-CEM leukemia): > 100 µM
GI50 (786-0 renal): 452 nM
TGI (786-0 renal): > 100 µM
GI50 (TK-10 renal): 474 nM
TGI (TK-10 renal): > 100 µM
GI50 (SNB-75 CNS): 289 nM
TGI (SNB-75 CNS): > 100 µM
GI50 (SF-268 CNS): 420 nM
TGI (SF-268 CNS): > 100 µM
GI50 (SNB-19 CNS): 350 nM
TGI (SNB-19 CNS): > 100 µM
GI50 (SK-OV-3 ovarian): 344 nM
TGI (SK-OV-3 ovarian): > 22.3 µM
GI50 (NCI-H23 lung): 352 nM
TGI (NCI-H23 lung): 5.54 µM
GI50 (HCT-116 colon): 420 nM
TGI (HCT-116 colon): > 100 µM
GI50 (HCC-2998 colon): 340 nM
GI50 (A498 renal): > 100 µM
TGI (A498 renal): > 100 µM
GI50 (UO-31 renal): 295 nM
TGI (UO-31 renal): 2290 nM
GI50 (HS 578T breast): 433 nM
TGI (HS 578T breast): > 100 µM

Source: PubChem BioAssay (NCI)
